# Where a name gives a salt, the structure may show the parent alone. Read-outs that look alike come from different tables or passages of the source.
# Experiments:
# [1] = system: mature stage V gametocytes (NF54 strain); test: High-throughput screening: killing effect by MitoTracker staining, primary screening at 1.11 µM and dose-response analysis; type: cell-based, Plasmodium falciparum; settings: for IC50: stage V gametocytes NF54, 24 h, dose-response analysis, N/A = not active in dose-response analysis, read-out: Killing IC50
# Description: (§1) Screening was conducted as previously described. Briefly, mature stage V gametocytes (NF54 strain) were cultured in vitro, then exposed to the explored compounds and filtered thereafter through layers of microspheres (microsphiltration)[25],[28]. Stiffening activity was determined by comparing gametocytemia up and downstream from the microsphere layers after filtration of drug-exposed gametocytes in 384-well plates using a vacuum manifold. Gametocytemia was assessed using DNA (Sybr Green) and erythrocyte membrane (CellMask) staining. Killing effect was assessed by MitoTracker staining. We screened two small libraries, specifically the Pathogen Box from the Medicine for Malaria Venture and the Kinase Inhibitors Box from GSK (400 and 350 compounds, respectively, Fig. 1A, B), and furthermore the larger ReFrame repurposing library (12,805 compounds, Fig. 1C).
# (§2) The Pathogen Box library (400 compounds, provided by MMV-Medicine for Malaria Ventures, Geneva, Switzerland), the Kinase Inhibitors Box library (350 compounds, provided by GSK-Glaxo SmithKline DDW Unit, Tres Cantos, Spain), and the ReFrame library (12,805 compounds provided by the California Institute for Biomedical Research-Calibr, La Jolla, CA, USA) were used according to the providers’ instructions. DMSO-solubilized compounds (10 mM stock concentration) were loaded in 384-well plates (Seahorse, cat. no. 201035−100). Two columns were left empty for the controls. For each compound, 5 nL were pre-spotted in a single well to reach a final concentration of 1.11 μM. The final volume for each well was 45 μl. Controls were prepared as follows: 22.5 nL of DMSO were loaded in 16 wells as negative controls (0.05% final concentration); 22.5 nL of NITD609 (provided by MMV, Geneva, Switzerland) 1 mM were loaded in 8 wells (0.5 μM final concentration), 17 nL of Calyculin A (Sigma, cat. no. C5552) […] were loaded in 6 wells (75 nM final concentration) and 225 nL of Gentian Violet (MolPort, cat. no. 002-133-551) 10 mM were loaded in the remaining 2 wells (50 μM final concentration). Plates were prepared in triplicate for the Pathogen Box and sextuplicate for the Kinase Inhibitors Box.
# (§3) Plasmodium falciparum NF54 strain parasites (used for screening campaign) were cultured at 4% hematocrit in RBCs from informed blood donors (blood group A) as previously described. Parasites were taken from the -80 °C freezer, then rapidly melt for 1 minute in a 37 °C water bath. A saline solution was gently added to avoid the lysis. Firstly, NaCl dissolved at 12% in distilled water (1/5 of the volume measured in the cryovial) and then NaCl dissolved at 1.6% (9 times the cryovial’s volume). After that, fresh RBCs were added to allow parasites re-growth. Infected RBCs were kept in RPMI medium (Sigma-Aldrich, cat. no. R4130), supplemented with 10% of decomplemented human serum, hypoxanthine 50 mg/l (Sigma-Aldrich, cat. no. H9636). Biobank of Castilla y Leon and Centro de Transfusiones de Madrid as providers of human red blood cell concentrates. The production of gametocytes was induced from a 0.5% ring-stage parasitemia (day 0). Medium was changed daily to induce gametocytes differentiation, as previously described. At day 17, gametocytes were concentrated using a density gradient medium (NycoPrep 1.077, Progen cat. no. 1114550)[27]. Parasitemia was adjusted by FACS (SYBR-Green and MitoTracker double staining, 3–5% targeted). Hematocrit was adjusted to 0.5% by adding fresh RBCs and controlled by manual counting in a Neubauer chamber (Celeromics, cat. no. 717810). Finally, the gametocyte suspension was poured (45 μL/well) into the compound-containing 384-well microplate, then incubated 24 hours both for the screening campaign and the dose-response analysis. Both asexual and sexual stages were cultivated in RPMI 1640 supplemented with 25 mM HEPES, 50 mg/L hypoxanthine, 50 μg/mL gentami-cin, 10% pooled heat-inactivated human serum (A^+).
# [2] = system: mature stage V gametocytes (NF54 strain); test: microbe, parasite or virus in culture; type: cell-based, Plasmodium falciparum; settings: for outcome of primary screen (hit definition): 1.11 µM
# Description: as §1, §2, §3
# [3] = Hit scoring on safety in human subjects and pharmacokinetics; settings: for Score (PK): peak plasma concentration vs IC50
# From the text: Hits from the ReFrame library were further selected based on safety, preferably oral administration (high score if oral), and potential availability for widespread use.
# [4] = Plasmodium falciparum, NF54, 24 h
# [5] = Plasmodium falciparum, NF54, 24 h, read-out: Stiffening IC50 (retention)
# [6] = stage V gametocytes NF54, 24 h, dose-response analysis, N/A = not active in dose-response analysis, read-out: Stiffening IC50 (retention)
Compound,"IC50 [1, 4] [nM]","IC50 [2, 5] [nM]",IC50 [1] [nM],"IC50 [2, 6] [nM]",also measured
Cl[TeH]1(Cl)(Cl)OCCO1 [Ammonium trichlorotellurate],13700,2200,,,
CCCC1(CCC)CCC2(CCN(CCCN(CC)CC)C2)CC1.O=C(O)/C=C\C(=O)O.O=C(O)/C=C\C(=O)O [Atiprimod dimaleate],,,6670,,Score (safety) [3]: 0; Score (PK) [3]: 0
CC(=O)OC[C@H]1O[C@@H]([S-])[C@H](OC(C)=O)[C@@H](OC(C)=O)[C@@H]1OC(C)=O.CCP(CC)CC.[Au+] [Auranofin],,,2580,3500,Score (safety) [3]: 0; Score (PK) [3]: 0
COc1ccc(NC(=O)N2CCCCN3[C@H](CN(C)C)[C@H](c4ccc(C#Cc5ccccc5)cc4)[C@@H]3C2)cc1 [BRD-7929],,,2200,3800,Score (safety) [3]: 0; Score (PK) [3]: 0
[O-][n+]1ccccc1SSc1cccc[n+]1[O-] [Bispyrithione],,2350,,,IC50 ([1]; Plasmodium falciparum): 920 nM
CC(C)C[C@H](NC(=O)[C@H](Cc1ccccc1)NC(=O)c1cnccn1)B(O)O [Bortezomib],,,,,IC50 ([1]; Plasmodium falciparum): 2060 nM
COC(=O)[C@@]12OC[C@]34[C@H]([C@@H](O)[C@@H]1O)[C@@]1(C)CC(=O)C(O)=C(C)[C@@H]1C[C@H]3OC(=O)[C@H](OC(=O)/C=C(\C)C(C)C)[C@@H]24 [Bruceantin],,20,,,IC50 ([1]; Plasmodium falciparum): 160 nM
Cc1cc(Nc2ncc(Cl)c(Nc3ccccc3S(=O)(=O)C(C)C)n2)c(OC(C)C)cc1C1CCNCC1 [Ceritinib],10000,10500,,,Score (safety) [3]: 0; Score (PK) [3]: 0
CC(C)NC(=N)NC(=N)Nc1ccc(Cl)c(Cl)c1.Cl [Chlorproguanil hydrochloride],,,,10400,Score (safety) [3]: 0; Score (PK) [3]: 1 (Peak plasma concentration lower than 1/3 IC50 (Score = 1))
CCCN1CCCC(c2ccc(Nc3nc(Nc4cc(F)ccc4C(N)=O)c4cc[nH]c4n3)c(OC)c2)C1 (stereo not shown) [GSK1173862A],2400,345,,,
COc1cc(N2CCN(C(C)C)CC2)ccc1Nc1nc(Nc2ccc(F)cc2C(N)=O)c2cc[nH]c2n1 [GSK1220512A],17000,2320,,,
CCCN1CCC(c2ccc(Nc3nc(Nc4cc(F)ccc4C(N)=O)c4cc[nH]c4n3)c(OC)c2)CC1 [GSK1326255A],8400,480,,,
C[C@]12CCC(=NOCCN)C[C@@H]1C(=O)C[C@@H]1[C@@H]2CC[C@]2(C)C(=O)CC[C@@H]12 [Istaroxime],,170,,,
CN(C)c1ccc2c(c1)Sc1cc(N(C)C)ccc1N2 [Leuco methylthioninium salt],,,23200,,Score (safety) [3]: 0; Score (PK) [3]: 0
COc1cccc(CC(=O)N2CCC(n3c(C)nc4ccc(F)cc43)CC2)c1 [MMV020081],,,29300,1470,
CN(C)c1ccc2nc3ccc(=[N+](C)C)cc-3sc2c1 [Methylthioninium chloride],4850,,,,"IC50 ([2]; Plasmodium falciparum, NF54, 24 h, read-out: Stiffening IC50 (retention), stage V gametocytes NF54, 24 h, dose-response analysis, N/A = not active in dose-response analysis): 2800 nM"
COC1=C(OC)C(=O)C(CCCCCCCCCC[P+](c2ccccc2)(c2ccccc2)c2ccccc2)=C(C)C1=O [Mitoquinone mesylate],11700,12100,,,Score (safety) ([3]; human): 3; Score (PK) [3]: 1 (Peak plasma concentration lower than 1/3 IC50 (Score = 1))
CCCCCCCCCCCCCC[n+]1ccc(C)cc1 [Myristyl-gamma picolinium chloride],,,4150,7200,

Compound,"IC50 [1, 4] [nM]","IC50 [2, 5] [nM]",IC50 [1] [nM],"IC50 [2, 6] [nM]",also measured
CC(C)(C)NCc1ccc(Nc2ccnc3cc(Cl)ccc23)cc1O [N-tert-butylisoquine],9550,9450,,,Score (safety) [3]: 0; Score (PK) [3]: 0
COc1ccc(-c2ccc3ncc4c(c3c2)n(-c2ccc(N3CCNCC3)c(C(F)(F)F)c2)c(=O)n4C)cn1 [NVP-BGT226],13,1600,,,Score (safety) [3]: 0; Score (PK) [3]: 2 (Peak plasma concentration between 1/3 IC50 and IC50 (Score = 2))
CC[C@@H](C(=O)O)[C@@H]1O[C@@H]([C@@H](C)[C@H](O)[C@H](C)C(=O)[C@H](CC)[C@H]2O[C@]3(C=C[C@@H](O)[C@]4(CC[C@@](C)([C@H]5CC[C@](O)(CC)[C@H](C)O5)O4)O3)[C@H](C)C[C@@H]2C)[C@@H](C)C[C@@H]1C [Narasin],,43000,,,IC50 ([1]; Plasmodium falciparum): 46000 nM
CCCCCCCCN=c1ccn(CCCCCCCCCCn2ccc(=NCCCCCCCC)cc2)cc1 [Octenidine],1250,1820,,,
CC[C@H]1/C=C/C=C/C[C@@H](C)[C@H](O)[C@@](C)(O)C(=O)[C@@H](C)[C@H](O)[C@@H](C)C(=O)[C@@H](C)[C@H](O)[C@@H](C)/C=C/C(=O)O[C@@H]2[C@H](C)[C@H](CC1)O[C@@]1(O[C@@H](C[C@@H](C)O)[C@@H](C)CC1=O)[C@H]2C [Oligomycin B],,,5800,1550,
CCCCN(CCCC)c1ccc2nc3ccc(=[N+](CCCC)CCCC)cc-3sc2c1 [PPA904],,,2420,5050,
CC(O)C(=O)O.Cc1[nH]c2ccccc2c1CCNCc1ccc(/C=C/C(=O)NO)cc1 [Panobinostat lactate],,,300,220,Score (safety) [3]: 0; Score (PK) [3]: 0
O=C([O-])[C@H]([O-])[C@@H]([O-])C(=O)[O-].O=C([O-])[C@H]([O-])[C@@H]([O-])C(=O)[O-].[K+].[K+].[Sb+3].[Sb+3] [Potassium antimonyl tartrate],,,3630,10700,
C/C=C1\NC(=O)[C@H]2CSSCC/C=C/[C@H](CC(=O)N[C@H](C(C)C)C(=O)N2)OC(=O)[C@H](C(C)C)NC1=O [Romidepsin],,5000,,,IC50 ([1]; Plasmodium falciparum): 20000 nM
COCCn1c2c([n+](Cc3cnccn3)c1C)C(=O)c1ccccc1C2=O [Sepantronium bromide],1350,1890,,,
C[CH2][Hg][S]c1ccccc1C(=O)[O-].[Na+] [Thimerosal],,,1500,930,
CNCc1ccc(-c2cc(-c3nc(-c4ccc(S(=O)(=O)C(C)C)cc4)cnc3N)on2)cc1 [VE-822],710,9500,,,
CCCc1nn(C)c2c(=O)[nH]c(-c3cc(S(=O)(=O)N4CCN(C)CC4)ccc3OCC)nc12 [sildenafil],,,,,outcome of primary screen (hit definition) [2]: not captured by the primary screen
CN1CC(=O)N2[C@H](c3ccc4c(c3)OCO4)c3[nH]c4ccccc4c3C[C@@H]2C1=O [tadalafil],,,,,outcome of primary screen (hit definition) [2]: not captured by the primary screen
Bismuth ethanedithiol,,,1300,1500,
Eseroline,,,1560,2300,
Gramicidin,,,8,70,killing IC50 in words ([1]; gametocytes): low nanomolar range
Oligomycin A,,,,,"IC50 ([2]; read-out: Stiffening IC50 (retention), stage V gametocytes NF54, 24 h, dose-response analysis, N/A = not active in dose-response analysis): 500 nM"
